Where only a bound is given, the exact number is not on record here.

Experiment [1] deals with Microtubule-associated protein tau (Homo sapiens, UniProt P10636). Kind of experiment: Inhibition of recombinant human microtubule associated protein tau aggregation by Thiazin-red R displacement fluorescence assay.
The target in experiment [2] is Amyloid-beta precursor protein (Homo sapiens, UniProt P05067). Kind of experiment: Inhibition of amyloid beta (unknown origin) aggregation by Thiazin-red R displacement fluorescence assay.
Sequence of Amyloid-beta precursor protein (P05067 whole entry): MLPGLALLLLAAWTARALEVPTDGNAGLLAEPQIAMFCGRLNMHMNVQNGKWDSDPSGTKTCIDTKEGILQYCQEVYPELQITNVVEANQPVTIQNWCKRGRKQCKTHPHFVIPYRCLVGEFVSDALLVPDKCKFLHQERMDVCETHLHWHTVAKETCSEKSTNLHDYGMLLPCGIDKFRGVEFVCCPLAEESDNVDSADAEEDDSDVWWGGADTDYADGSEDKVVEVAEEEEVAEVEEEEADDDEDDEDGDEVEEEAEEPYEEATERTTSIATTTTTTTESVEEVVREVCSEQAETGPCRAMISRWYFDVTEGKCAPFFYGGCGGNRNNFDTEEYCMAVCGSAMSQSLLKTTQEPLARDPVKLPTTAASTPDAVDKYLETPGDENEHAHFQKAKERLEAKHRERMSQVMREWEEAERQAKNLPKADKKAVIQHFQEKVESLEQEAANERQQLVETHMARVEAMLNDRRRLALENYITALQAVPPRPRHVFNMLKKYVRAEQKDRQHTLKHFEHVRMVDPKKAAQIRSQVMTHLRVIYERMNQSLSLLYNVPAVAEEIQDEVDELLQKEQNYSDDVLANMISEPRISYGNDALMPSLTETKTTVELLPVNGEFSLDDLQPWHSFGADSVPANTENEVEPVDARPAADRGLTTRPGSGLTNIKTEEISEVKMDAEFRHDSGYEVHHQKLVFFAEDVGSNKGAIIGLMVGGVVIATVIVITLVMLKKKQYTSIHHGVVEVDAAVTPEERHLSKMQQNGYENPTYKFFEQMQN

Sequence of Microtubule-associated protein tau (P10636 whole entry): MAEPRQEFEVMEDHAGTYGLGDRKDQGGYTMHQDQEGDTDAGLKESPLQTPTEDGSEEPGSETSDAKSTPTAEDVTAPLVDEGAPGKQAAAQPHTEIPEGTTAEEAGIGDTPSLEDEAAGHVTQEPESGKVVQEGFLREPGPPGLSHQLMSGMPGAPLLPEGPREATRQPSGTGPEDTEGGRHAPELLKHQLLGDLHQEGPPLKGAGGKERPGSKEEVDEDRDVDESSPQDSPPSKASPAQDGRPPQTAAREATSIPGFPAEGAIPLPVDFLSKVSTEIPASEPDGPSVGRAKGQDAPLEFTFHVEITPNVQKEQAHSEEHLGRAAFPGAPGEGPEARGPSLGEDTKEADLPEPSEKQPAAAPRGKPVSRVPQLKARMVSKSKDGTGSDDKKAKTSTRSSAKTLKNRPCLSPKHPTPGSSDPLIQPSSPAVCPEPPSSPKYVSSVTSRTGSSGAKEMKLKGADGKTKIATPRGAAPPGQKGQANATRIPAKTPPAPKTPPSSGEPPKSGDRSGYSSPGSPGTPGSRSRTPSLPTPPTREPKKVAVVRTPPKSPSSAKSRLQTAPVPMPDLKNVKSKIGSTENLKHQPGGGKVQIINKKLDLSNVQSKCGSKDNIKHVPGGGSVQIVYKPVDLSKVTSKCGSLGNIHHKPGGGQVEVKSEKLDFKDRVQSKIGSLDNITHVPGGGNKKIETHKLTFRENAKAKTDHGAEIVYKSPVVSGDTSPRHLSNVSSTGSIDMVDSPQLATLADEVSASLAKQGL

Consider `COc1cc(/C=c2\sc3nc(-c4ccncc4C)cn3c2=O)cc(OC)c1O`, for which the IC50 – broadly, the concentration at which inhibition is half-maximal – in experiment [1] came to 8 nM; in experiment [2], 32 nM. Regarding `COc1cc(/C=c2\sc3nc(-c4cccc(OC(F)(F)F)c4)cn3c2=O)cc(F)c1O`, the IC50 in experiment [2] was over 10000 nM.

Consider `COc1cc(/C=c2\sc3nc(-c4ccncc4C)cn3c2=O)ccc1O`, for which the IC50 in experiment [1] was 79 nM; in experiment [2], over 10000 nM.

Values taken from ChEMBL document CHEMBL3286307, “Imidazo[2,1]thiazol-3-one Derivatives Useful as Diagnostic Agents for Alzheimer's Disease” (ACS Med Chem Lett, 2014).
